The experiment concerns the target hDGAT2 (Homo sapiens (Human), UniProt Q96PD7). In words: DGAT2 Enzymatic Activity Assay. Type of experiment: biochemical. Particulars: hDGAT2 Sf-9 membrane prep; 25 μM diolein, 10 μM oleoyl-CoA; triolein product by LC/MS/MS; read-out: IC50 values for inhibition of DGAT2. How it is done: Sf-9 insect cells were maintained in Grace's insect cell culture medium with 10% heated-inactivated fetal bovine serum, 1% Pluronic F-68 and 0.14 μg/ml Kanamycine sulfate in Erlenmeyer flasks at 28° C. in a shaker incubator. After infection with untagged hDGAT2 baculovirus at multiplicity of infection (MOI) 0.1 for 48 hours, cells were harvested. Cell pellets were suspended in buffer containing 10 mM Tris-HCl (pH 7.5), 1 mM EDTA (pH 8.0), 250 mM sucrose and Complete Protease Inhibitor Cocktail (Roche Diagnostics Corp., Indianapolis, Ill.), and sonicated on ice. Membrane fractions were isolated by ultracentrifugation (100,000×g pellet), resuspended in the same buffer, and frozen (−80° C.) for later use. The protein concentration was determined with the BCA Protein Assay kit (Pierce Biotechnology Inc., Rockford, Ill.). Expression of protein levels was analyzed by immunoblotting with goat polyclonal DGAT2 antibody C-15 and donkey anti-goat IgG HRP (Santa Cruz Biotechnology, Inc., Santa Cruz, Calif.) followed by detection with ECL reagent (GE Healthcare, Piscataway, N.J.).
LC/MS/MS analyses were performed using Thermal Fisher's LX4-TSQ Vantage system. This system consists of an Agilent binary high-performance liquid chromatography (HPLC) pumps and a TSQ Vantage triple quadrupole MS/MS instrument. For each sample, 2 μL, samples from the top organic layer of in-plate liquid-liquid extraction were injected onto a Thermo Betabasic C4 column (2.1 mm×20 mm, 5 μm particle size). The samples were then eluted using the following conditions; mobile phase: methanol/water with 0.1% ammonium format=92/8 (v/v), flow rate: 1 mL/min, temperature: 25 C. Data was acquired in positive mode using a heated electrospray ionization (HESI) interface. The operational parameters for the TSQ Vantage MS/MS instrument were a spray voltage of 3000 V, capillary temperature of 280° C., vaporizer temperature 400° C., shealth gas 60 arbitrary unit, Aux gas 40 arbitrary units, S-lens 113 and collision gas 0.16 Pascals. […] (SRM) chromatograms of triolein (Q1: 902.9>Q3: 602.3) and internal standard (Q1: 902.9>Q3: 602.3) were collected for 40 sec. The peak area was integrated by Xcalibur Quan software. The ratio between the triolein generated in the reaction and spiked in internal standard were used to generate percentage inhibition and IC50 values. Compound percentage inhibition was calculated by the following formula: Inhibition %=1-[(compound response low control)/(high control low control)]×100%. Potent compounds were titrated and IC50 were calculated by 4 parameter sigmoidal curve fitting formula.
DGAT2 activity was determined by measuring the amount of enzymatic product triolein (1,2,3-Tri(cis-9-octadecenoyl)glycerol) using the membrane prep mentioned above. The assay was carried out in deep well 384 plates in a final volume of 40 μL at room temperature. The assay mixture contained the following: assay buffer (100 mM Tris.Cl, pH 7.0, 20 mM MgCl2, 5% ethanol), 25 μM of diolein, 10 μM of oleoyl-CoA and 10 ng/μL of DGAT2 membrane.
Sequence of hDGAT2 (Q96PD7 whole entry): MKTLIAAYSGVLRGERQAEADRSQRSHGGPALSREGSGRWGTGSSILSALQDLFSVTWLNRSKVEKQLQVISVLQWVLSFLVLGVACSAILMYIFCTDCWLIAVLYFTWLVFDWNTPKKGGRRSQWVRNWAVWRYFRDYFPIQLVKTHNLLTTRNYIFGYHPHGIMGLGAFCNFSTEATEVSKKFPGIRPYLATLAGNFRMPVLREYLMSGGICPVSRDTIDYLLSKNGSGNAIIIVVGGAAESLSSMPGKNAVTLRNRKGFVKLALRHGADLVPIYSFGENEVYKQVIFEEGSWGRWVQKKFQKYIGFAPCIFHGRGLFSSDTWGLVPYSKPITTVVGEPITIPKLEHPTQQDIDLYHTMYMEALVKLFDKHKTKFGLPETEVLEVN
As for `COC(=O)c1cccc(-c2ccc(CNC(=O)C3CC3c3ccccc3)c3c2CCN(C(=O)Cc2ccccc2)C3)c1` (centres unmarked) [Example 112, methyl 3-(2-(2-phenylacetyl)-8-((2-phenylcyclopropanecarboxamido)methyl)-1,2,3,4-tetrahydroisoquinolin-5-yl)benzoate], the IC50 came out at 2930 nM.

As for `Cc1cc(C)n(-c2cccc(-c3ccc(CNC(=O)[C@@H]4C[C@H]4c4ccccc4)c4c3CCN(C(=O)NC(C)(C)C)C4)c2)n1` (relative stereo) [Example 31, N-(tert-butyl)-5-(3-(3,5-dimethyl-1H-pyrazol-1-yl)phenyl)-8-(((trans)-2-phenylcyclopropanecarboxamido)methyl)-3,4-dihydroisoquinoline-2(1H)-carboxamide], the IC50 amounted to 6090 nM.

Turning to `CC(C)(C)NC(=O)N1CCc2c(-c3cccc(-c4nnco4)c3)ccc(CNC(=O)[C@@H]3C[C@H]3c3ccccc3)c2C1` (relative stereo) [Example 49, 5-(3-(1,3,4-oxadiazol-2-yl)phenyl)-N-(tert-butyl)-8-(((trans)-2-phenylcyclopropanecarboxamido)methyl)-3,4-dihydroisoquinoline-2(1H)-carboxamide], the IC50 was 10.4 nM. Next, `CC(C)(C)NC(=O)N1CCc2c(-c3cccc(NS(C)(=O)=O)c3)ccc(CNC(=O)[C@@H]3C[C@H]3c3ccccc3)c2C1` (relative stereo) [Example 39, N-(tert-butyl)-5-(3-(methylsulfonamido)phenyl)-8-(((trans)-2-phenylcyclopropanecarboxamido)methyl)-3,4-dihydroisoquinoline-2(1H)-carboxamide]: 832 nM; `COc1cccc(-c2ccc(CNC(=O)[C@@H]3C[C@H]3c3nc(C)no3)c3c2CCN(C(=O)Nc2ccon2)C3)c1` (relative stereo) [Example 25, N-(isoxazol-3-yl)-5-(3-methoxyphenyl)-8-(((trans)-2-(3-methyl-1,2,4-oxadiazol-5-yl)cyclopropanecarboxamido)methyl)-3,4-dihydroisoquinoline-2(1H)-carboxamide]: 144 nM; `Cc1noc(C2CC2C(=O)NCc2ccc(-c3cccc(OC(F)(F)F)c3)c3c2CN(CC(=O)NC2CC2)CC3)n1` (centres unmarked) [Example 82, N-((2-(2-(cyclopropylamino)-2-oxoethyl)-5-(3-(trifluoromethoxy)phenyl)-1,2,3,4-tetrahydroisoquinolin-8-yl)methyl)-2-(3-methyl-1,2,4-oxadiazol-5-yl)cyclopropanecarboxamide]: 722 nM. For the compound `COc1cccc(-c2ccc(CNC(=O)[C@@H]3C[C@H]3c3nc(C)no3)c3c2CCN(C(=O)NC2(C)COC2)C3)c1` (relative stereo) [Example 53, 5-(3-methoxyphenyl)-8-(((trans)-2-(3-methyl-1,2,4-oxadiazol-5-yl)cyclopropanecarboxamido)methyl)-N-(3-methyloxetan-3-yl)-3,4-dihydroisoquinoline-2(1H)-carboxamide], the IC50 worked out at 13.4 nM. Next, `COC[C@H]1CCC[C@H]1NC(=O)CN1CCc2c(-c3cccc(OC(F)(F)F)c3)ccc(CNC(=O)C3CC3c3nc(C)no3)c2C1` (stereo in doubt) [Example 86, N-((2-(2-(((trans)-2-(methoxymethyl)cyclopentyl)amino)-2-oxoethyl)-5-(3-(trifluoromethoxy)phenyl)-1,2,3,4-tetrahydroisoquinolin-8-yl)methyl)-2-(3-methyl-1,2,4-oxadiazol-5-yl)cyclopropanecarboxamide]: 2290 nM; `Cc1noc([C@@H]2C[C@H]2C(=O)NCc2ccc(-c3cccc(OC(F)(F)F)c3)c3c2CN(C(=O)Nc2ccon2)CC3)n1` (relative stereo) [Example 2, N-(isoxazol-3-yl)-8-(((trans)-2-(3-methyl-1,2,4-oxadiazol-5-yl)cyclopropanecarboxamido)methyl)-5-(3-(trifluoromethoxy)phenyl)-3,4-dihydroisoquinoline-2(1H)-carboxamide]: 112 nM. Next, `COC(=O)c1cccc(-c2ccc(CNC(=O)C3CC3c3ccccc3)c3c2CCN(C(=O)c2cccc(F)c2)C3)c1` (centres unmarked) [Example 140, methyl 3-(2-(3-fluorobenzoyl)-8-((2-phenylcyclopropanecarboxamido)methyl)-1,2,3,4-tetrahydroisoquinolin-5-yl)benzoate]: 1530 nM; `COc1cccc(-c2ccc(CNC(=O)C3CC3c3ccccc3)c3c2CCN(S(C)(=O)=O)C3)c1` (centres unmarked) [Example 89, N-((5-(3-methoxyphenyl)-2-(methylsulfonyl)-1,2,3,4-tetrahydroisoquinolin-8-yl)methyl)-2-phenylcyclopropanecarboxamide]: 2780 nM.

`COCCC(=O)N1CCc2c(-c3cccc(C(=O)OC)c3)ccc(CNC(=O)C3CC3c3ccccc3)c2C1` (centres unmarked) [Example 126, methyl 3-(2-(3-methoxypropanoyl)-8-((2-phenylcyclopropanecarboxamido)methyl)-1,2,3,4-tetrahydroisoquinolin-5-yl)benzoate]: the IC50 amounted to 1770 nM. Under `COC(=O)c1cccc(-c2ccc(CNC(=O)[C@@H]3C[C@H]3c3ccccc3)c3c2CCN(C(=O)NC2(C)CCCC2)C3)c1` (relative stereo) [Example 55, methyl 3-(2-((1-methylcyclopentyl)carbamoyl)-8-(((trans)-2 phenylcyclopropanecarboxamido)methyl)-1,2,3,4-tetrahydroisoquinolin-5-yl) benzoate] stands 10 nM; under `Cn1nccc1-c1ccc(CNC(=O)[C@@H]2C[C@H]2c2ccccc2)c2c1CCN(C(=O)NC(C)(C)C)C2` (relative stereo) [Example 30, N-(tert-butyl)-5-(1-methyl-1H-pyrazol-5-yl)-8-(((trans)-2-phenylcyclopropanecarboxamido)methyl)-3,4-dihydroisoquinoline-2(1H)-carboxamide], 1170 nM. Next, `Cc1noc([C@@H]2C[C@H]2C(=O)NCc2ccc(-c3cccc(C(F)(F)F)c3)c3c2CN(C(=O)NC2(C)COC2)CC3)n1` (relative stereo) [Example 69, 8-(((trans)-2-(3-methyl-1,2,4-oxadiazol-5-yl)cyclopropanecarboxamido)methyl)-N-(3-methyloxetan-3-yl)-5-(3-(trifluoromethyl)phenyl)-3,4-dihydroisoquinoline-2(1H)-carboxamide]: 19.6 nM. Next, `Cc1noc([C@@H]2C[C@H]2C(=O)NCc2ccc(-c3cccc(OC(F)(F)F)c3)c3c2CN(Cc2noc(C4CC4)n2)CC3)n1` (relative stereo) [Example 101, (trans)-N-((2-((5-cyclopropyl-1,2,4-oxadiazol-3-yl)methyl)-5-(3-(trifluoromethoxy)phenyl)-1,2,3,4-tetrahydroisoquinolin-8-yl)methyl)-2-(3-methyl-1,2,4-oxadiazol-5-yl)cyclopropanecarboxamide]: 4500 nM; `Cc1noc([C@@H]2C[C@H]2C(=O)NCc2ccc(-c3cccc(OC(F)(F)F)c3)c3c2CN(C(=O)NC(C)(C)C)CC3)n1` (relative stereo) [Example 12, N-(tert-butyl)-8-(((trans)-2-(3-methyl-1,2,4-oxadiazol-5-yl)cyclopropanecarboxamido)methyl)-5-(3-(trifluoromethoxy)phenyl)-3,4-dihydroisoquinoline-2(1H)-carboxamide]: 3.6 nM; `COc1cccc(-c2ccc(CNC(=O)[C@@H]3C[C@H]3c3ccccc3)c3c2CCN(C(=O)C(C)(C)C)C3)c1` (relative stereo) [Example 113, (trans)-N-((5-(3-methoxyphenyl)-2-pivaloyl-1,2,3,4-tetrahydroisoquinolin-8-yl)methyl)-2-phenylcyclopropanecarboxamide]: 887 nM. Take `CCn1ccnc1CN1CCc2c(-c3cccc(OC(F)(F)F)c3)ccc(CNC(=O)C3C[C@H]3c3nc(C)no3)c2C1` (some centres unmarked) [Example 102]: the IC50 was 456 nM.

Regarding `CC(C)(C)NC(=O)N1CCc2c(-c3ccn4ncnc4c3)ccc(CNC(=O)[C@@H]3C[C@H]3c3ccccc3)c2C1` (relative stereo) [Example 43, 5-([1,2,4]triazolo[1,5-a]pyridin-7-yl)-N-(tert-butyl)-8-(((trans)-2-phenylcyclopropanecarboxamido)methyl)-3,4-dihydroisoquinoline-2(1H)-carboxamide], the IC50 amounted to 3130 nM.

(Values after patent publication US10568876B2, “Tetrahydroisoquinoline derivatives useful as inhibitors of diacylglyceride O-acyltransferase 2” (Merck Sharp & Dohme Corp., priority 2014, dated 2020).)
